Reference: patent US8609651B2, “Pharmaceutical compositions of benzodiazepines and method of use thereof” (Jazz Pharmaceuticals, Inc., priority 2006, dated 2013)
In brackets after ≈: the same amount, converted by molar mass. Like-named read-outs stand apart in the source and are kept apart here.

Legend:
[1] = Saturated solubility in receiver fluid systems (HPLC); settings: 37 °C, thermodynamic from solid
Experimental: Following the stability studies, a suitable receiver fluid was developed in order to ensure that sink conditions for tested drug were such that the drug release was limited by the solubility of the drug in the receiver fluid. […] Briefly, drug was saturated into different receiver fluid systems by adding excess drug and allowed to stir with a magnetic flea over a period of 2 h at 37° C. Each saturated solution was then filtered using a 0.2 μm syringe filter and the resultant solution was assayed via HPLC.
Calibration curves for clonazepam were constructed between 0.2 to 10 μg/mL with appropriate replicates to ensure repeatability and linearity.
Standards were prepared in receiver fluid (10% ethanol in buffer 6). […] The filtration at room temperature was performed as quickly as possible to minimize any drug precipitation as the temperature dropped from 37° C. during filtration.

[2] = Solubility of clonazepam in binary solvent mixtures; settings: triacetin/glycofurol 50:50 mixture, 25 °C, organic solvent or mixture, thermodynamic from solid
Experimental: Further, the solubility of clonazepam in binary mixtures of Transcutol® (TC), triacetin (TA), glycofurol (GF) and propylene glycol (PG) was evaluated. Solubility limits of clonazepam were determined for the following formulations:
Excess drug (50 mg) was capped with about 500 μL of the solvent matrix in a 1.5 mL microfuge tube and the solution was mixed on a vortex shaker for several minutes. Thereafter, the solution was placed in an ultrasonic bath at 25° C. for 45 minutes. The temperature was regulated with a thermometer and controlled by adding ice into the bath. After 15 minutes of standing, the solutions were centrifuged at 3,000×g for 30 minutes. Solutions were then stored for 16 hours at 25° C. in an ICH cabinet protected from light.

[3] = in vivo; cited from earlier work
[4] = Solubilities of clonazepam in glycol ethers at 3 temperatures; settings: neat solvent, organic solvent or mixture, thermodynamic from solid
Experimental: The vials were then centrifuged at −5° C. and 5° C. for the −15° C. and 5° C. samples, respectively, at 5000 rpm for 2 minutes.

[5] = Solubilities of clonazepam in water-containing solvents; format: physicochemical; settings: 25 °C
Experimental: The vials were stored at 25° C. for approximately 1 day. Prior to sampling, the vials were centrifuged at 5000 rpm for 2 minutes at 23° C. The results are shown below; neat solvent solubilities from Example 11 are included for reference. Increased water content decreases solubility substantially.

[6] = Drug recovery, degradation and binding to nasal sheep mucosa; format: in vitro ADME; settings: sheep nasal mucosa (excised tissue) in buffer, 37° C., read-out: % recovery in the presence of nasal sheep mucosa
Experimental: (i) Drug recovery, degradation and binding to nasal sheep mucosa: The effect of drug recovery, degradation and binding to sheep nasal mucosa was determined. Briefly, a known surface area (approx. 1 cm^2) of sheep nasal mucosa was added into a glass vial containing a known concentration (10 μg/mL) of each drug prepared in the receiver fluid (10% ethanol in pH 6 buffer). The content of the vial was allowed to equilibrate at 37° C. over a period of 48 h. At 24 h intervals, a sample was removed and assayed via HPLC. The percentage of drug recovered was calculated using Equation 4: % drug recovered=(drug concentration at t=Y/drug concentration at t=Z)×100 (Equation 4)
where, Y=specific time point at 37° C. (in the presence of nasal sheep mucosa); and Z=specific time point at 37° C. (in the absence of nasal sheep mucosa).
In addition to the stability against heat degradation, the effect of drug binding or degradation in the presence of nasal sheep mucosa was also determined (Table 6).

[7] = Psychomotor, cognitive and subjective tests in volunteers; format: in vivo; settings: human
[8] = Solubility of clonazepam in glycol ethers at 25° C.; settings: neat solvent, organic solvent or mixture, thermodynamic from solid
Experimental: 10 mg of clonazepam was weighed into glass vials used in the Pfeiffer mono-dose spray system (Pfeiffer of America, Princeton, N.J.). Four samples of each of four solvents were prepared as follows. 130-μL of each solvent was pipetted into the vial, which was then stoppered with a black chlorobutyl rubber stopper.
The vials were removed from the chamber, placed inside polyethylene centrifuge vials, and centrifuged for 2 minutes at 5000 rpm. 10 μL of liquid was then sampled from each vial, accurately weighed, and diluted with 1 mL of acetonitrile. The drug concentration was analyzed by UV using an Agilent HPLC system with no column, 10 μL injection volume, acetonitrile mobile phase, 0.3 mL/min and UV detection at 350 nm.

[9] = qEEG mapping in volunteers; format: in vivo; settings: human, oral

O=C1CN=C(c2ccccc2Cl)c2cc([N+](=O)[O-])ccc2N1 [Clonazepam, 5-(2-chlorophenyl)-1,3-dihydro-7-nitro-2H-1,4-benzodiazepin-2-one]
solubility at 2 h ([1]; pH 6, aqueous buffer, buffer pH 6, 37° C.): 0.0137 mg/mL (≈ 0.0433 mM)
solubility at 2 h ([1]; pH 6, aqueous with cosolvent or surfactant or cyclodextrin, 20% ethanol in buffer pH6, 37° C.): 0.0823 mg/mL (≈ 0.261 mM)
solubility at 2 h ([1]; pH 6, aqueous with cosolvent or surfactant or cyclodextrin, receiver solution, 10% ethanol in buffer pH 6, 37° C.): 0.0293 mg/mL (≈ 0.0929 mM)
solubility at 16 h [2]: ~36.4 mg/mL (≈ 115 mM)
amount excreted unchanged in the urine [3]: less than 0.5 % of a dose
excreted in the feces [3]: 9-27 % of a dose
half-life [3]: 18 to 50 h
roughly equal dose (potency equivalence) [3]: ~0.25 mg
solubility ([4]; 1,2-dimethyxoethane, 5 °C): 35.7 mg/mL (≈ 113 mM)
solubility ([4]; 1,2-dimethyxoethane, 25 °C): 39.3 mg/mL (≈ 124 mM)
solubility ([4]; 1,2-dimethyxoethane, -15 °C): 35.2 mg/mL (≈ 111 mM)
solubility ([4]; di(ethylene glycol) diethyl ether, 5 °C): 18.5 mg/mL (≈ 58.6 mM)
solubility ([4]; di(ethylene glycol) diethyl ether, 25 °C): 19 mg/mL (≈ 60.2 mM)
solubility ([4]; di(ethylene glycol) diethyl ether, -15 °C): 19.5 mg/mL (≈ 61.8 mM)
solubility ([4]; di(ethylene glycol) methyl ether, 5 °C): 53.9 mg/mL (≈ 171 mM)
solubility ([4]; di(ethylene glycol) methyl ether, 25 °C): 56.4 mg/mL (≈ 179 mM)
solubility ([4]; di(ethylene glycol) methyl ether, -15 °C): 58.1 mg/mL (≈ 184 mM)
solubility ([4]; diethylene glycol monoethyl ether (DEGEE), 25 °C): 41.8 mg/mL (≈ 132 mM)
solubility ([4]; diethylene glycol monoethyl ether, 5 °C): 37.7 mg/mL (≈ 119 mM)
solubility ([4]; diethylene glycol monoethyl ether, -15 °C): 43.3 mg/mL (≈ 137 mM)
solubility ([5]; 1,2-dimethyxoethane / pH 6.8 buffered water mixture (20:80), pH 6.8, aqueous with cosolvent or surfactant or cyclodextrin, kinetic from dmso stock, 1,2-dimethyxoethane 20% solvent, 80% pH6.8 buffered water, 25° C.): 0.18 mg/mL (≈ 0.57 mM)
solubility ([5]; 1,2-dimethyxoethane / pH 6.8 buffered water mixture (40:60), pH 6.8, aqueous with cosolvent or surfactant or cyclodextrin, kinetic from dmso stock, 1,2-dimethyxoethane 40% solvent, 60% pH6.8 buffered water, 25° C.): 0.64 mg/mL (≈ 2.03 mM)
solubility ([5]; 1,2-dimethyxoethane / pH 6.8 buffered water mixture (60:40), pH 6.8, aqueous with cosolvent or surfactant or cyclodextrin, kinetic from dmso stock, 1,2-dimethyxoethane 60% solvent, 40% pH6.8 buffered water, 25° C.): 9.2 mg/mL (≈ 29.1 mM)
solubility ([5]; 1,2-dimethyxoethane / pH 6.8 buffered water mixture (80:20), pH 6.8, aqueous with cosolvent or surfactant or cyclodextrin, kinetic from dmso stock, 1,2-dimethyxoethane 80% solvent, 20% pH6.8 buffered water, 25° C.): 29.6 mg/mL (≈ 93.8 mM)
solubility ([5]; 1,2-dimethyxoethane, neat solvent, organic solvent or mixture, 1,2-dimethyxoethane 100% solvent, 0% water, 25° C. (neat, from Example 11)): 39.3 mg/mL (≈ 124 mM)
solubility ([5]; pH 6.8, aqueous with cosolvent or surfactant or cyclodextrin, kinetic from dmso stock, Di (ethylene glycol) methyl ether 20% solvent, 80% pH6.8 buffered water): 0.26 mg/mL (≈ 0.824 mM)
solubility ([5]; pH 6.8, aqueous with cosolvent or surfactant or cyclodextrin, kinetic from dmso stock, Di (ethylene glycol) methyl ether 40% solvent, 60% pH6.8 buffered water): 1 mg/mL (≈ 3.17 mM)
solubility ([5]; pH 6.8, aqueous with cosolvent or surfactant or cyclodextrin, kinetic from dmso stock, Di (ethylene glycol) methyl ether 60% solvent, 40% pH6.8 buffered water): 2.8 mg/mL (≈ 8.87 mM)
solubility ([5]; pH 6.8, aqueous with cosolvent or surfactant or cyclodextrin, kinetic from dmso stock, Di (ethylene glycol) methyl ether 80% solvent, 20% pH6.8 buffered water): 18.9 mg/mL (≈ 59.9 mM)
solubility ([5]; pH 6.8, aqueous with cosolvent or surfactant or cyclodextrin, kinetic from dmso stock, Di (ethyleneglycol) diethyl ether 20% solvent, 80% pH6.8 buffered water): 0.31 mg/mL (≈ 0.982 mM)
solubility ([5]; pH 6.8, aqueous with cosolvent or surfactant or cyclodextrin, kinetic from dmso stock, Di (ethyleneglycol) diethyl ether 40% solvent, 60% pH6.8 buffered water): 1.23 mg/mL (≈ 3.9 mM)
solubility ([5]; pH 6.8, aqueous with cosolvent or surfactant or cyclodextrin, kinetic from dmso stock, Di (ethyleneglycol) diethyl ether 60% solvent, 40% pH6.8 buffered water): 8.5 mg/mL (≈ 26.9 mM)
solubility ([5]; pH 6.8, aqueous with cosolvent or surfactant or cyclodextrin, kinetic from dmso stock, Di (ethyleneglycol) diethyl ether 80% solvent, 20% pH6.8 buffered water): 38.8 mg/mL (≈ 123 mM)
solubility ([5]; pH 6.8, aqueous with cosolvent or surfactant or cyclodextrin, kinetic from dmso stock, Diethylene glycol monoethyl ether 20% solvent, 80% pH6.8 buffered water): 0.3 mg/mL (≈ 0.95 mM)
solubility ([5]; pH 6.8, aqueous with cosolvent or surfactant or cyclodextrin, kinetic from dmso stock, Diethylene glycol monoethyl ether 40% solvent, 60% pH6.8 buffered water): 0.52 mg/mL (≈ 1.65 mM)
solubility ([5]; pH 6.8, aqueous with cosolvent or surfactant or cyclodextrin, kinetic from dmso stock, Diethylene glycol monoethyl ether 60% solvent, 40% pH6.8 buffered water): 4.5 mg/mL (≈ 14.3 mM)
solubility ([5]; pH 6.8, aqueous with cosolvent or surfactant or cyclodextrin, kinetic from dmso stock, Diethylene glycol monoethyl ether 80% solvent, 20% pH6.8 buffered water): 21.8 mg/mL (≈ 69 mM)
solubility ([5]; di(ethylene glycol) diethyl ether, neat solvent, organic solvent or mixture, Di (ethyleneglycol) diethyl ether 100% solvent, 0% water, 25° C. (neat, from Example 11)): 19 mg/mL (≈ 60.2 mM)
solubility ([5]; di(ethylene glycol) methyl ether, neat solvent, organic solvent or mixture, Di (ethylene glycol) methyl ether 100% solvent, 0% water, 25° C. (neat, from Example 11)): 56.4 mg/mL (≈ 179 mM)
solubility ([5]; diethylene glycol monoethyl ether (DEGEE), neat solvent, organic solvent or mixture, Diethylene glycol monoethyl ether 100% solvent, 0% water, 25° C. (neat, from Example 11)): 41.8 mg/mL (≈ 132 mM)
recovery at 24 h, 10 μg/mL ([6]; buffer pH 5 (10% ethanol)): 97.8%
recovery at 48 h, 10 μg/mL ([6]; buffer pH 5 (10% ethanol)): 96.5%
recovery at 24 h, 10 μg/mL ([6]; buffer pH 6 (10% ethanol)): 97.5%
recovery at 48 h, 10 μg/mL ([6]; buffer pH 6 (10% ethanol)): 97.1%
recovery at 24 h, 10 μg/mL ([6]; buffer pH 7 (10% ethanol)): 99.3%
recovery at 48 h, 10 μg/mL ([6]; buffer pH 7 (10% ethanol)): 97.8%
time at which psychomotor and subjective effects were first apparent ([7]; intranasal): approximately 30 minutes
time at which psychomotor and subjective effects were first apparent ([7]; intravenous): approximately 30 minutes
time at which psychomotor and subjective effects were first apparent ([7]; oral): approximately 2 hours
solubility ([8]; 1,2-dimethyxoethane): 39.3 mg/mL (≈ 124 mM)
solubility ([8]; di(ethylene glycol) diethyl ether): 19 mg/mL (≈ 60.2 mM)
solubility ([8]; di(ethylene glycol) methyl ether): 56.4 mg/mL (≈ 179 mM)
solubility ([8]; diethylene glycol monoethyl ether (DEGEE)): 41.8 mg/mL (≈ 132 mM)
time after dosing at which EEG pattern (increased delta and beta, decreased alpha and theta) was noted [9]: approximately 2 hours
